# Data published in ChEMBL document CHEMBL1155430, “Discovery of novel and potent benzhydryl-tropane trypanocides highly selective for Trypanosoma cruzi” (Bioorg Med Chem Lett, 2010).
# Tests used:
# [1] = system: L6; assay: Cytotoxicity against rat L6 cells; assay type: cell-based
# [2] = system: Trypanosoma cruzi; assay: Antiparasitic activity against Trypanosoma cruzi Tulahuen C2C4 amastigotes; assay type: functional, organism-based
# [3] = system: Plasmodium falciparum; assay: Antiparasitic activity against Plasmodium falciparum 3D7 at erythrocytic stage; assay type: functional, organism-based
# [4] = system: Leishmania donovani; assay: Antiparasitic activity against Leishmania donovani MHOM/ET/67/L82 amastigotes; assay type: functional, organism-based
# [5] = target: Trypanothione reductase (Trypanosoma cruzi, UniProt P28593); assay: Inhibition of Trypanosoma cruzi X10/1 recombinant trypanothione reductase assessed as increase in absorbance at 410 nm due to the formation of TNB
# [6] = system: Trypanosoma brucei rhodesiense; assay: Antiparasitic activity against Trypanosoma brucei rhodesiense STIB900 bloodstream form; assay type: functional, organism-based
# [7] = Selectivity index, ratio of EC50 for Trypanosoma cruzi Tulahuen C2C4 amastigotes to the EC50 for rat L6 cells
# Sequence of Trypanothione reductase (P28593 whole entry): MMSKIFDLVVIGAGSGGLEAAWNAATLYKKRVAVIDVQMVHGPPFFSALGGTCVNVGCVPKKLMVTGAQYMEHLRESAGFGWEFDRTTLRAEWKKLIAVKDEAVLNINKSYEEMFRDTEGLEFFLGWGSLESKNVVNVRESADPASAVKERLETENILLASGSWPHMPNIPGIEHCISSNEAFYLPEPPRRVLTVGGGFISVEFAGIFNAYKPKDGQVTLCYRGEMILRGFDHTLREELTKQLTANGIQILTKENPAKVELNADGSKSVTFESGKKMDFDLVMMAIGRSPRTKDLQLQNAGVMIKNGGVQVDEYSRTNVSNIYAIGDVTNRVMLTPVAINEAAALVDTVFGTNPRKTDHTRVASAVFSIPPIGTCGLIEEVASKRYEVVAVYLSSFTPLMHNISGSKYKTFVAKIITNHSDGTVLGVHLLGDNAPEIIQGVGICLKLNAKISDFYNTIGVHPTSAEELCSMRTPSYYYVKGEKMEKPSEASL
SMILES,EC50 [1] [µM],EC50 [2] [µM],further results
CN1C2CCC1CC(=NOC(c1ccc(Cl)cc1)c1ccccn1)C2 (stereo not drawn),> 100,2.9,
CN1C2CCC1CC(=NOC(c1ccccc1)c1ccc(C#N)cc1)C2 (stereo not drawn),53,0.4,
Clc1ccc(C(ON=C2CCCCC2)c2ccccc2)cc1 (stereo not drawn),> 100,> 10,
CN1C2CCC1CC(=NOC(CCc1ccccc1)c1ccc(Cl)cc1)C2 (stereo not drawn),20,6.5,
CN1C2CCC1CC(=NOC(c1ccccc1)c1ccccc1Cl)C2 (stereo not drawn),15,6.8,
O=C(Cn1ccnc1[N+](=O)[O-])NCc1ccccc1 [BENZNIDAZOLE],,1.8,
OCCN1C2CCC1CC(=NOC(c1ccccc1)c1ccc(Cl)cc1)C2 (stereo not drawn),47,7.8,
COc1ccc(C(ON=C2CC3CCC(C2)N3C)c2ccccc2)cc1 (stereo not drawn),> 100,0.3,
CN1C2CCC1CC(=NOC(c1ccccc1)c1ccc(Cl)cc1)C2 (stereo not drawn),36,0.11,EC50 [3]: 7.5 µM; EC50 [4]: > 30 µM; EC50 [5]: 35 µM; EC50 [6]: 3 µM
COc1cccc(C(ON=C2CC3CCC(C2)N3C)c2ccccc2)c1 (stereo not drawn),48,2,
CN1C2CCC1CC(=NOC(c1ccc(Cl)cc1)c1cccnc1)C2 (stereo not drawn),> 100,0.5,
CN1C2CCC1CC(=NOC(c1ccc(Cl)cc1)c1ccc(Cl)cc1)C2,16,6,
CN1C2CCC1CC(=NOC(c1ccccc1)c1ccccc1)C2,> 100,1.3,
Cc1ccc(C(ON=C2CC3CCC(C2)N3C)c2ccccc2)cc1 (stereo not drawn),51,0.3,
Clc1ccc(C(ON=C2CC3CCC(C2)N3)c2ccccc2)cc1 (stereo not drawn),9.8,2,
CC(C)=NOC(c1ccccc1)c1ccc(Cl)cc1 (stereo not drawn),> 100,> 10,
CN1C2CCC1CC(=NOC(Cc1ccccc1)c1ccc(Cl)cc1)C2 (stereo not drawn),40,2.1,
CN1C2CCC1CC(=NOCc1ccc(Cl)cc1)C2,> 100,> 10,
CN1C2CCC1CC(=NOC(CCc1ccc(Cl)cc1)c1ccccc1)C2 (stereo not drawn),16,0.8,
CN1CCC(=NOC(c2ccccc2)c2ccc(Cl)cc2)CC1 (stereo not drawn),50,3.7,

SMILES,EC50 [1] [µM],EC50 [2] [µM],further results
COc1ccccc1C(ON=C1CC2CCC(C1)N2C)c1ccccc1 (stereo not drawn),> 100,> 10,
CN1C2CCC1CC(=NOC(c1ccccc1)c1cccc(Cl)c1)C2 (stereo not drawn),19,2.1,
CN1C2CCC1CC(=NOC(c1ccc(Cl)cc1)c1cscn1)C2 (stereo not drawn),71,0.8,
CN1C2CCC1CC(=NOC(c1ccccc1)c1ccc(F)cc1)C2 (stereo not drawn),50,0.8,
CN1C2CCC1CC(=NOC(c1ccncc1)c1ccc(Cl)cc1)C2 (stereo not drawn),> 100,6.2,
CN1C2CCC1CC(=NOC1c3ccccc3-c3ccccc31)C2,68,> 10,
CCCCCCCCCCCCCCCCOP(=O)([O-])OCC[N+](C)(C)C [MILTEFOSINE],,,EC50 [4]: 0.27 µM
CN1C2CCC1CC(=NOCc1ccccc1)C2,> 100,> 10,
CN1C2CCC1CC(=NOC(c1ccccc1)c1ccc(Br)cc1)C2 (stereo not drawn),40,0.04,
CN(C)CCN1C2CCC1CC(=NOC(c1ccccc1)c1ccc(Cl)cc1)C2 (stereo not drawn),15,6.9,
CN1C2CCC1CC(=NOC(c1ccc(Cl)cc1)c1nccs1)C2 (stereo not drawn),> 100,2.3,
COc1cc([C@@H]2c3cc4c(cc3[C@H](O)[C@H]3COC(=O)[C@H]23)OCO4)cc(OC)c1OC [PODOFILOX],0.014,,
CN1C2CCC1CC(=NOC(CCCc1ccccc1)c1ccc(Cl)cc1)C2 (stereo not drawn),17,4.3,
Nc1nc(N)nc(Nc2ccc([As]3SCC(CO)S3)cc2)n1 (stereo not drawn) [MELARSOPROL],,,EC50 [6]: 0.017 µM
CN1C2CCC1CC(=NOC(Cc1ccc(Cl)cc1)c1ccccc1)C2 (stereo not drawn),49,1.9,
CCN(CC)CCCC(C)Nc1ccnc2cc(Cl)ccc12 (stereo not drawn) [CHLOROQUINE],,,EC50 [3]: 0.0094 µM
CN1C2CCC1CC(=NOC(c1ccccc1)c1ccc(I)cc1)C2 (stereo not drawn),39,0.04,
CN1C2CCC1CC(=NOC(c1ccc(Cl)cc1)c1cncs1)C2 (stereo not drawn),> 100,6,
CN1C2CCC1CC(=NOC(c1ccccc1)c1ccc(C(F)(F)F)cc1)C2 (stereo not drawn),35,0.03,Ratio EC50 [7]: >1000
